Measured values from ChEMBL document CHEMBL1126597, “Irreversible inactivation of macrophage and brain nitric oxide synthase by L-NG-methylarginine requires NADPH-dependent hydroxylation” (J Med Chem, 1993).

Biological target: T1, Nitric oxide synthase, inducible (Mus musculus) (UniProt P29477)
T1 sequence (whole entry): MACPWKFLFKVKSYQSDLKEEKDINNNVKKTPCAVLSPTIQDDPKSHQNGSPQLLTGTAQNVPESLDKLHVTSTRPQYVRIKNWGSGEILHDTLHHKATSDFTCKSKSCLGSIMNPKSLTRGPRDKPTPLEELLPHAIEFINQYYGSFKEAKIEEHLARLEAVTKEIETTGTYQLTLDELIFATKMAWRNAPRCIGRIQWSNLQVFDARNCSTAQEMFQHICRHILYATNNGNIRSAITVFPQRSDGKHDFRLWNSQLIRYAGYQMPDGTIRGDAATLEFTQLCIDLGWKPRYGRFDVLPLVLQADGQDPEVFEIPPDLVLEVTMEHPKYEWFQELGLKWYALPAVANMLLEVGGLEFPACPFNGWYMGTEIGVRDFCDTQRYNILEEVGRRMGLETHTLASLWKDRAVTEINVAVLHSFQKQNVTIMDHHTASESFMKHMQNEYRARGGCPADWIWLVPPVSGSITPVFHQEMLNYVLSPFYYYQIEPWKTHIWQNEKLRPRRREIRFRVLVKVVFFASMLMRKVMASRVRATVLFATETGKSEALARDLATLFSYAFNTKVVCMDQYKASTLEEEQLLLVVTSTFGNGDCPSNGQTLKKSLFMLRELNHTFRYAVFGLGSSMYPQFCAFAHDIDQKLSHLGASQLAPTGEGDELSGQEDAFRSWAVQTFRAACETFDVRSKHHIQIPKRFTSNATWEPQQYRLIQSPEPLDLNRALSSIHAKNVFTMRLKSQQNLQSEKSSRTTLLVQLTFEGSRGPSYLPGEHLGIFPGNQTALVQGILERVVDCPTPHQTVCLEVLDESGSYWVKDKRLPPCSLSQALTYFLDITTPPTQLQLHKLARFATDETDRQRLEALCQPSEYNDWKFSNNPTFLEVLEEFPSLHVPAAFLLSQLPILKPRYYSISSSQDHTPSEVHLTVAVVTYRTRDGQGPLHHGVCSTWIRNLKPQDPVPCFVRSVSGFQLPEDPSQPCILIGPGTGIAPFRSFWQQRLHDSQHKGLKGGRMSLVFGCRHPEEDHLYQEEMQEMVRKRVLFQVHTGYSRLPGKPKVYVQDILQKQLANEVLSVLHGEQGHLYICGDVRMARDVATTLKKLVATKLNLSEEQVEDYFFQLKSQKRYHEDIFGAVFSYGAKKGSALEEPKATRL
Experiment: Inhibitory against murine macrophage nitric oxide synthase (mNOS) at 10 uM

**Q.** How did the kinact turn out when `CN(O)C(=N)NCCCC(N)C(=O)O` (configuration not stated) was run?
**A.** 0.1 min⁻¹

**Q.** How did the kinact turn out when `CNC(=N)NCCC[C@H](N)C(=O)O` was run?
**A.** 0.08 min⁻¹
